Source: patent publication US12545639B2, “3-substituted phenylamidine compounds, preparation and use thereof” (PI INDUSTRIES LTD., priority 2019, dated 2026)

Experiments:
Pyricularia oryzae = assay: microbe, parasite or virus in culture; assay type: cell-based; conditions: 168 h, read-out: control compared to the untreated check (radial growth)
Rhizoctonia solani = Rhizoctonia solani (rice sheath blight/potato black scurf) in vitro test, radial growth on potato dextrose agar; assay type: cell-based; conditions: 168 h, 300 ppm in potato dextrose agar, 25° C., 60% relative humidity, seven days, read-out: control compared to the untreated check (radial growth)
Botrytis cinerea = Botrytis cinerea (gray mold) in vitro test, radial growth on potato dextrose agar; assay type: cell-based; conditions: 168 h, 300 ppm in potato dextrose agar, 22° C., 90% relative humidity, seven days, read-out: control compared to the untreated check (radial growth)
Alternaria solani = Alternaria solani (early blight of tomato/potato) in vitro test, radial growth on potato dextrose agar; assay type: cell-based; conditions: 168 h, 300 ppm in potato dextrose agar, 25° C., 60% relative humidity, seven days, read-out: control compared to the untreated check (radial growth)
Fusarium culmorum = Fusarium culmorum (foot rot of cereals) in vitro test, radial growth on potato dextrose agar; assay type: cell-based; conditions: 168 h, 300 ppm in potato dextrose agar, 25° C., 60% relative humidity, seven days, read-out: control compared to the untreated check (radial growth)
Method: Compounds were dissolved in 0.3% dimethyl sulfoxide and then added to potato dextrose agar medium just prior to dispensing it into petri dishes. 5 mL medium with the compound in the desired concentration was dispensed into 60 mm sterile petri-plates. After solidification each plate was seeded with a 5 mm size mycelial disc taken from the periphery of an actively growing virulent culture plate. Plates were incubated in growth chambers at 25° C. temperature and 60% relative humidity for seven days and then the radial growth was measured and compared to that of the untreated control.

Phakopsora pachyrhizi = Phakopsora pachyrhizi test in soybean, preventive, in vivo on plants; conditions: in Glycine max, read-out: Efficacy (% control), disease severity compared to the untreated check
[1] = system: Septoria lycopersici/Corynespora cassicola (CORYCA); assay: Septoria lycopersici/Corynespora cassicola (CORYCA) (leaf spot of tomato) in vitro test, radial growth on potato dextrose agar; assay type: cell-based; conditions: 168 h, 300 ppm in potato dextrose agar, 25° C., 70% relative humidity, seven days, read-out: control compared to the untreated check (radial growth)
Colletotrichum capsici = Colletotrichum capsici (anthracnose) in vitro test, radial growth on potato dextrose agar; assay type: cell-based; conditions: Colletotrichum truncatum, 168 h; 300 ppm in potato dextrose agar; 25° C., 60% relative humidity, seven days; read-out: control compared to the untreated check (radial growth)

CCN(C)C=Nc1cc(Cl)cc(Cc2cc(C)c(F)c(C)c2)c1C [Compound 87, N′-(5-chloro-3-(4-fluoro-3,5-dimethylbenzyl)-2-methylphenyl)-N-ethyl-N-methylformimidamide]
≥ 70%: inhibition of growth at 300 ppm (Pyricularia oryzae) | inhibition of growth at 300 ppm (Rhizoctonia solani) | inhibition of growth at 300 ppm (Botrytis cinerea) | inhibition of growth at 300 ppm (Alternaria solani) | inhibition of growth at 300 ppm (Fusarium culmorum) | pest or weed control at 500 ppm (Phakopsora pachyrhizi)

CCN(C)C=Nc1cc(OC)cc(Cc2cccc(Cl)c2)c1C [Compound 264, N′-(3-(3-chlorobenzyl)-5-methoxy-2-methylphenyl)-N-ethyl-N-methylformimidamide]
≥ 70%: inhibition of growth at 300 ppm (Pyricularia oryzae) | inhibition of growth at 300 ppm (Rhizoctonia solani) | inhibition of growth at 300 ppm (Botrytis cinerea) | inhibition of growth at 300 ppm (Alternaria solani) | inhibition of growth at 300 ppm [1] | inhibition of growth at 300 ppm (Fusarium culmorum) | pest or weed control at 500 ppm (Phakopsora pachyrhizi)

CCN(C)C=Nc1cc(OC)cc(Cc2ccc(C(F)(F)F)cc2)c1C [Compound 295, N-ethyl-N′-(5-methoxy-2-methyl-3-(4-(trifluoromethyl)benzyl)phenyl)-N-methylformimidamide]
≥ 70%: inhibition of growth at 300 ppm (Pyricularia oryzae) | inhibition of growth at 300 ppm (Rhizoctonia solani) | inhibition of growth at 300 ppm (Botrytis cinerea) | inhibition of growth at 300 ppm (Alternaria solani) | inhibition of growth at 300 ppm [1] | inhibition of growth at 300 ppm (Fusarium culmorum) | pest or weed control at 500 ppm (Phakopsora pachyrhizi)

CCN(C)C=Nc1cc(OC)cc(Cc2ccccc2C(F)(F)F)c1C [Compound 307, N-ethyl-N′-(5-methoxy-2-methyl-3-(2-(trifluoromethyl)benzyl)phenyl)-N-methylformimidamide]
≥ 70%: inhibition of growth at 300 ppm (Pyricularia oryzae) | inhibition of growth at 300 ppm (Rhizoctonia solani) | inhibition of growth at 300 ppm (Botrytis cinerea) | inhibition of growth at 300 ppm (Alternaria solani) | inhibition of growth at 300 ppm [1] | inhibition of growth at 300 ppm (Fusarium culmorum)

CCN(C)C=Nc1cc(OC)cc(Cc2ccccc2C)c1C [Compound 262, N-ethyl-N′-(5-methoxy-2-methyl-3-(2-methylbenzyl)phenyl)-N-methylformimidamide]
≥ 70%: inhibition of growth at 300 ppm (Pyricularia oryzae) | inhibition of growth at 300 ppm (Rhizoctonia solani) | inhibition of growth at 300 ppm (Botrytis cinerea) | inhibition of growth at 300 ppm (Alternaria solani) | inhibition of growth at 300 ppm [1] | inhibition of growth at 300 ppm (Fusarium culmorum) | pest or weed control at 500 ppm (Phakopsora pachyrhizi)

CCN(C)C=Nc1cc(OC)cc(Cc2cc(F)ccc2Cl)c1C [Compound 293, N′-(3-(2-chloro-5-fluorobenzyl)-5-methoxy-2-methylphenyl)-N-ethyl-N-methylformimidamide]
≥ 70%: inhibition of growth at 300 ppm (Pyricularia oryzae) | inhibition of growth at 300 ppm (Rhizoctonia solani) | inhibition of growth at 300 ppm (Botrytis cinerea) | inhibition of growth at 300 ppm (Alternaria solani) | inhibition of growth at 300 ppm [1] | inhibition of growth at 300 ppm (Fusarium culmorum)

CCN(C)C=Nc1cc(OC)cc(N(C)c2ccc(OC)c(F)c2)c1C [Compound 271, N-ethyl-N′-(3-((3-fluoro-4-methoxyphenyl)(methyl)amino)-5-methoxy-2-methylphenyl)-N-methylformimidamide]
≥ 70%: inhibition of growth at 300 ppm (Pyricularia oryzae) | inhibition of growth at 300 ppm (Alternaria solani) | inhibition of growth at 300 ppm [1] | inhibition of growth at 300 ppm (Fusarium culmorum)

CCN(C)C=Nc1cc(OC)cc(Cc2ccc(F)cc2)c1C [Compound 261, N-ethyl-N′-(3-(4-fluorobenzyl)-5-methoxy-2-methylphenyl)-N-methylformimidamide]
≥ 70%: inhibition of growth at 300 ppm (Pyricularia oryzae) | inhibition of growth at 300 ppm (Rhizoctonia solani) | inhibition of growth at 300 ppm (Botrytis cinerea) | inhibition of growth at 300 ppm (Alternaria solani) | inhibition of growth at 300 ppm [1] | inhibition of growth at 300 ppm (Fusarium culmorum) | pest or weed control at 500 ppm (Phakopsora pachyrhizi)

CCN(C)C=Nc1cc(OC)cc(Cc2ccccc2OC(F)(F)F)c1C [Compound 299, N-ethyl-N′-(5-methoxy-2-methyl-3-(2-(trifluoromethoxy)benzyl)phenyl)-N-methylformimidamide]
≥ 70%: inhibition of growth at 300 ppm (Pyricularia oryzae) | inhibition of growth at 300 ppm (Rhizoctonia solani) | inhibition of growth at 300 ppm (Botrytis cinerea) | inhibition of growth at 300 ppm (Alternaria solani) | inhibition of growth at 300 ppm [1] | inhibition of growth at 300 ppm (Fusarium culmorum) | pest or weed control at 500 ppm (Phakopsora pachyrhizi)

CCN(C)C=Nc1cc(OC)cc(Cc2cccc(OC(F)(F)F)c2)c1C [Compound 305, N-ethyl-N′-(5-methoxy-2-methyl-3-(3-(trifluoromethoxy)benzyl)phenyl)-N-methylformimidamide]
≥ 70%: inhibition of growth at 300 ppm (Pyricularia oryzae) | inhibition of growth at 300 ppm (Rhizoctonia solani) | inhibition of growth at 300 ppm (Botrytis cinerea) | inhibition of growth at 300 ppm (Alternaria solani) | inhibition of growth at 300 ppm [1] | inhibition of growth at 300 ppm (Fusarium culmorum)

CCN(C)C=Nc1cc(OC)cc(Cc2cc(C)cc(F)c2)c1C [Compound 292, N-ethyl-N′-(3-(3-fluoro-5-methylbenzyl)-5-methoxy-2-methylphenyl)-N-methylformimidamide]
≥ 70%: inhibition of growth at 300 ppm (Pyricularia oryzae) | inhibition of growth at 300 ppm (Rhizoctonia solani) | inhibition of growth at 300 ppm (Botrytis cinerea) | inhibition of growth at 300 ppm (Alternaria solani) | inhibition of growth at 300 ppm [1] | inhibition of growth at 300 ppm (Fusarium culmorum)

CCN(C)C=Nc1cc(F)cc(Cc2ccccc2Cl)c1C [Compound 142, N′-(3-(2-chlorobenzyl)-5-fluoro-2-methylphenyl)-N-ethyl-N-methylformimidamide]
≥ 70%: inhibition of growth at 300 ppm (Pyricularia oryzae) | inhibition of growth at 300 ppm (Rhizoctonia solani) | inhibition of growth at 300 ppm (Botrytis cinerea) | inhibition of growth at 300 ppm (Alternaria solani) | inhibition of growth at 300 ppm [1] | inhibition of growth at 300 ppm (Fusarium culmorum)

CCN(C)C=Nc1cc(OC)cc(Cc2ccccc2F)c1C [Compound 266, N-ethyl-N′-(3-(2-fluorobenzyl)-5-methoxy-2-methylphenyl)-N-methylformimidamide]
≥ 70%: inhibition of growth at 300 ppm (Pyricularia oryzae) | inhibition of growth at 300 ppm (Rhizoctonia solani) | inhibition of growth at 300 ppm (Alternaria solani) | inhibition of growth at 300 ppm [1] | inhibition of growth at 300 ppm (Fusarium culmorum) | pest or weed control at 500 ppm (Phakopsora pachyrhizi)

CCN(C)C=Nc1cc(Cl)cc(N(C)c2ncccn2)c1C [Compound 214, N′-(5-chloro-2-methyl-3-(methyl(pyrimidin-2-yl)amino)phenyl)-N-ethyl-N-methylformimidamide]
≥ 70%: inhibition of growth at 300 ppm (Pyricularia oryzae) | inhibition of growth at 300 ppm (Rhizoctonia solani) | inhibition of growth at 300 ppm (Alternaria solani) | inhibition of growth at 300 ppm [1] | inhibition of growth at 300 ppm (Fusarium culmorum) | pest or weed control at 500 ppm (Phakopsora pachyrhizi)

CCN(C)C=Nc1cc(OC)cc(Cc2ccccc2Cl)c1C [Compound 265, N′-(3-(2-chlorobenzyl)-5-methoxy-2-methylphenyl)-N-ethyl-N-methylformimidamide]
≥ 70%: inhibition of growth at 300 ppm (Pyricularia oryzae) | inhibition of growth at 300 ppm (Rhizoctonia solani) | inhibition of growth at 300 ppm (Botrytis cinerea) | inhibition of growth at 300 ppm (Alternaria solani) | inhibition of growth at 300 ppm [1] | inhibition of growth at 300 ppm (Fusarium culmorum)

CCN(C)C=Nc1cc(Cl)cc(Nc2cccc(Br)c2)c1C [Compound 164, N′-(3-((3-bromophenyl)amino)-5-chloro-2-methylphenyl)-N-ethyl-N-methylformimidamide]
≥ 70%: inhibition of growth at 300 ppm (Pyricularia oryzae) | inhibition of growth at 300 ppm (Rhizoctonia solani) | inhibition of growth at 300 ppm (Botrytis cinerea) | inhibition of growth at 300 ppm (Alternaria solani) | inhibition of growth at 300 ppm [1] | inhibition of growth at 300 ppm (Fusarium culmorum)

CCN(C)C=Nc1cc(C)cc(Cc2c(F)cccc2Cl)c1Cl [Compound 92, N′-(2-chloro-3-(2-chloro-6-fluorobenzyl)-5-methylphenyl)-N-ethyl-N-methylformimidamide]
≥ 70%: inhibition of growth at 300 ppm (Pyricularia oryzae) | inhibition of growth at 300 ppm (Rhizoctonia solani) | inhibition of growth at 300 ppm (Botrytis cinerea) | inhibition of growth at 300 ppm (Alternaria solani) | inhibition of growth at 300 ppm (Colletotrichum capsici) | inhibition of growth at 300 ppm [1] | pest or weed control at 500 ppm (Phakopsora pachyrhizi)

CCN(C)C=Nc1cc(C)cc(Cc2c(F)cccc2F)c1Cl [Compound 91, N′-(2-chloro-3-(2,6-difluorobenzyl)-5-methylphenyl)-N-ethyl-N-methylformimidamide]
≥ 70%: inhibition of growth at 300 ppm (Pyricularia oryzae) | inhibition of growth at 300 ppm (Rhizoctonia solani) | inhibition of growth at 300 ppm (Botrytis cinerea) | inhibition of growth at 300 ppm (Alternaria solani) | inhibition of growth at 300 ppm (Colletotrichum capsici) | inhibition of growth at 300 ppm [1] | pest or weed control at 500 ppm (Phakopsora pachyrhizi)

CCN(C)C=Nc1cc(C)cc(Nc2ccc(F)cc2)c1Cl [Compound 60, N′-(2-chloro-3-((4-fluorophenyl)amino)-5-methylphenyl)-N-ethyl-N-methylformimidamide]
≥ 70%: inhibition of growth at 300 ppm (Pyricularia oryzae) | inhibition of growth at 300 ppm (Rhizoctonia solani) | inhibition of growth at 300 ppm (Botrytis cinerea) | inhibition of growth at 300 ppm (Alternaria solani) | inhibition of growth at 300 ppm (Colletotrichum capsici) | inhibition of growth at 300 ppm [1] | pest or weed control at 500 ppm (Phakopsora pachyrhizi)

CCN(C)C=Nc1cc(C)cc(Cc2ccc(F)c(F)c2)c1Cl [Compound 67, N′-(2-chloro-3-(3,4-difluorobenzyl)-5-methylphenyl)-N-ethyl-N-methylformimidamide]
≥ 70%: inhibition of growth at 300 ppm (Pyricularia oryzae) | inhibition of growth at 300 ppm (Rhizoctonia solani) | inhibition of growth at 300 ppm (Botrytis cinerea) | inhibition of growth at 300 ppm (Alternaria solani) | inhibition of growth at 300 ppm (Colletotrichum capsici) | inhibition of growth at 300 ppm [1] | pest or weed control at 500 ppm (Phakopsora pachyrhizi)
